Results from ChEMBL document CHEMBL1201862, “PubChem BioAssay data set” (2004).
The source made the active and inactive calls. For most assays here, no stated cut-off is given here; in the data, actives have a measured IC50 and inactives only a lower limit.

Columns and labels:
[1] = test system: HEK293; test: membrane integrity loss in HEK cells – cell-based, fluorescence, cytotoxicity control for IDE activator project, dose response (AID 588440); format: functional; settings: Homo sapiens;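 further: cytotoxicity by LDH release measuring loss of membrane integrity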
[2] = test system: HEK293; test: optical interference in Abeta FP readout, dose response, artefact control for IDE activator project, biochemical, fluorescence polarization (AID 588442); format: functional, cell-based; settings: Homo sapiens
[3] = target: T1, Insulin-degrading enzyme (Homo sapiens, UniProt P14735); test: cellular IDE activation of Abeta substrate cleavage – fluorescence polarization, HEK cells, dose response (AID 588439); format: functional, cell-based
T1 sequence (P14735 whole entry): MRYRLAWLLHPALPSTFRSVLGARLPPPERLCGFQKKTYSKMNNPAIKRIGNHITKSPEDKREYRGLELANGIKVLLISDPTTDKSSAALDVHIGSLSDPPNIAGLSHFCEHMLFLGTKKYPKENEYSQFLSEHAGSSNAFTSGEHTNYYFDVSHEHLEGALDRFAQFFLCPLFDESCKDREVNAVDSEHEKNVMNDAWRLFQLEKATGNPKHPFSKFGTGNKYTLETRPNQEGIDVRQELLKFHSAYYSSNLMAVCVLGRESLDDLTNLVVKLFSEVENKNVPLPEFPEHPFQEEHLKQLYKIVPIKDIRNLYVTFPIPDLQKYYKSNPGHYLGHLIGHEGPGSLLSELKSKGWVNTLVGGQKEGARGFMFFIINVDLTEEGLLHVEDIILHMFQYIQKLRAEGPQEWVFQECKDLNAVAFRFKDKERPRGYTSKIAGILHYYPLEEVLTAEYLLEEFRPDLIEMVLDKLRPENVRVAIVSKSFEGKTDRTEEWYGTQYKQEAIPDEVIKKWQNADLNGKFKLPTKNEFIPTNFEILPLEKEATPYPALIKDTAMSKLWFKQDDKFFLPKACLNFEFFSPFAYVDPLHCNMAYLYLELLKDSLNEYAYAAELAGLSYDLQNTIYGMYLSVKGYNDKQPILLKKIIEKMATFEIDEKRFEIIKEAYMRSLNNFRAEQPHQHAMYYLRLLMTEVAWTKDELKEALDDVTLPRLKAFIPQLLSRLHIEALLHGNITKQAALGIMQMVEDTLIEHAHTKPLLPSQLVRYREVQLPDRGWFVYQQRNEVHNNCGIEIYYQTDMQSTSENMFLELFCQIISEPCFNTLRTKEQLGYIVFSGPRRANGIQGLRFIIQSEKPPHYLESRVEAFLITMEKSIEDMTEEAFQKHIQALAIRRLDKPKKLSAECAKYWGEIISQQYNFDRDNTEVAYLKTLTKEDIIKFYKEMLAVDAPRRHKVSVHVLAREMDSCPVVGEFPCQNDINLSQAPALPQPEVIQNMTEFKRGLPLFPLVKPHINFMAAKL

[4] = target: T1, Insulin-degrading enzyme; test: recombinant IDE activation, cell-free – biochemical, fluorescence polarization, counter-screen for IDE activator project, dose response (AID 588681)
[5] = target: T2, Sentrin-specific protease 7 (Homo sapiens, UniProt Q9BQF6); test: inhibition of human SENP7 cleavage activity – biochemical, luminescence, SAR follow-up (AID 504497); format: functional
T2 sequence (Q9BQF6 whole entry): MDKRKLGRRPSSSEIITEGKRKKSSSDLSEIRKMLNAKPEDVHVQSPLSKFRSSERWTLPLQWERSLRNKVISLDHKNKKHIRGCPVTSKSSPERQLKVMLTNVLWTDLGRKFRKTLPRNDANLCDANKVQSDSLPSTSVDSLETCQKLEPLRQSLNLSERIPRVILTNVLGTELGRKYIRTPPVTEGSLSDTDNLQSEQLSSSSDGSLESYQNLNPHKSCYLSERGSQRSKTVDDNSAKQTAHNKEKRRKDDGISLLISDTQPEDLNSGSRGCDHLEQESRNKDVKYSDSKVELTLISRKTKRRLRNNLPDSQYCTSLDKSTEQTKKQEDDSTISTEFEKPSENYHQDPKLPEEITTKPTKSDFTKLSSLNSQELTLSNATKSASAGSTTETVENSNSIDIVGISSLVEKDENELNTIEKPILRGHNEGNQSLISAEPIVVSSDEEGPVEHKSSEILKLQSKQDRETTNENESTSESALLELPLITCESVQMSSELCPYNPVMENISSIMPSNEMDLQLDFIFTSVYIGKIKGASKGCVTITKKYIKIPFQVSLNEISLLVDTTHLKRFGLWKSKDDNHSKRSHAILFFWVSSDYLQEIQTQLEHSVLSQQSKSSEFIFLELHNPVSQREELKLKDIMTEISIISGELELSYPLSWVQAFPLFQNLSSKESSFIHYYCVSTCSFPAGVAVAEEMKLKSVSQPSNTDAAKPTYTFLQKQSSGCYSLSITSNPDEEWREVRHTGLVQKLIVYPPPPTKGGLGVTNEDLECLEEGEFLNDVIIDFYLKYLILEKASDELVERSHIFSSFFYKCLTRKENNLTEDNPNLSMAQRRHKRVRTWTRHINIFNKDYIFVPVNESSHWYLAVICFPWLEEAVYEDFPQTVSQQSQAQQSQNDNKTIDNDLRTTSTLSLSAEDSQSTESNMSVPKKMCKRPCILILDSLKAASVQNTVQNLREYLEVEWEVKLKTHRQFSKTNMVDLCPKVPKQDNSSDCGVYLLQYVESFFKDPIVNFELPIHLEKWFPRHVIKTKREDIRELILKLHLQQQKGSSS

[6] = target: T3, Sentrin-specific protease 8 (Homo sapiens, UniProt Q96LD8); test: inhibition of human SENP8 cleavage activity – biochemical, luminescence, SAR follow-up (AID 504501); format: functional
T3 sequence (Q96LD8 whole entry): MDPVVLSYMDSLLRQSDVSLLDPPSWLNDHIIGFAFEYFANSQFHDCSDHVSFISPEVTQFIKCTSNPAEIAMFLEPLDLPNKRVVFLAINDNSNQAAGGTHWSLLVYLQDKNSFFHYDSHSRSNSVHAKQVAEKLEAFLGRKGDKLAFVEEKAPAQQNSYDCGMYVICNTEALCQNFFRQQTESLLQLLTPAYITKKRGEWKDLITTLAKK

[7] = target: T2, Sentrin-specific protease 7; test: inhibition of human SENP7 cleavage activity – biochemical, luminescence, set 2, SAR follow-up (AID 588600); format: functional
[8] = target: T4, Sentrin-specific protease 6 (Homo sapiens, UniProt Q9GZR1); test: SAR Analysis of small molecule inhibitors of Sentrin-specific protease 6 (SENP6) using a Luminescent assay. [Related pubchem assays (depositor defined):AID2582, AID2599]; format: functional
T4 sequence (Q9GZR1 whole entry): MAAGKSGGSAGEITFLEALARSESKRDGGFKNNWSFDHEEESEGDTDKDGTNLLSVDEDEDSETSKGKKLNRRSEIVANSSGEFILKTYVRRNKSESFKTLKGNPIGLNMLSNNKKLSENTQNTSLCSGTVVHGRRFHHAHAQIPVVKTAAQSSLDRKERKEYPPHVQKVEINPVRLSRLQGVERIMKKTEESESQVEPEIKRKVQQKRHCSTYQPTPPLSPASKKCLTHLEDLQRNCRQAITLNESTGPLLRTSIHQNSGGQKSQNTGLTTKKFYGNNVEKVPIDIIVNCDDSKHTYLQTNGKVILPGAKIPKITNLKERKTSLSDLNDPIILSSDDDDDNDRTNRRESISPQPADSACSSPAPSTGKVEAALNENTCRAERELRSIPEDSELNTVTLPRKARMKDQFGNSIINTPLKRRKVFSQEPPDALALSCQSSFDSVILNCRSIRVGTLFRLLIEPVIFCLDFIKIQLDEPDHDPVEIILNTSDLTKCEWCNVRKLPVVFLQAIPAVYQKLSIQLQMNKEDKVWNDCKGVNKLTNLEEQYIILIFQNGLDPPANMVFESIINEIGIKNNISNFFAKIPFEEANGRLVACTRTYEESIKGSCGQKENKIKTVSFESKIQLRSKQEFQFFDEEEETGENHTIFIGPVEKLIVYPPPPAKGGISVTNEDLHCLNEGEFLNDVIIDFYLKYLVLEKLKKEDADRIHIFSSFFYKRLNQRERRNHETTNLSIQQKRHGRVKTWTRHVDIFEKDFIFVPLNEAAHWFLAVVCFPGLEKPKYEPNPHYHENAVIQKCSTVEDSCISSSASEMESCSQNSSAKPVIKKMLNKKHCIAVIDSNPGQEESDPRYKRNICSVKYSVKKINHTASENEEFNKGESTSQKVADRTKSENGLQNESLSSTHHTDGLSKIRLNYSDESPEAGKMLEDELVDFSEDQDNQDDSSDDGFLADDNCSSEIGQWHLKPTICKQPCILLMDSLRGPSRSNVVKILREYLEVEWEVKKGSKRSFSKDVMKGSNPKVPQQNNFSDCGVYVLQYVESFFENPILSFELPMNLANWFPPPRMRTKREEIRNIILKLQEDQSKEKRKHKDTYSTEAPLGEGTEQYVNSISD

[9] = target: T5, Caspase-3 (Homo sapiens, UniProt P42574); test: SAR Analysis of small molecule inhibitors of Sentrin-specific proteases (SENPs) using a Caspase-3 Selectivity assay. [Related pubchem assays (depositor defined):AID2540, AID2599, AID434973, AID489001]; format: functional
T5 sequence (P42574 whole entry): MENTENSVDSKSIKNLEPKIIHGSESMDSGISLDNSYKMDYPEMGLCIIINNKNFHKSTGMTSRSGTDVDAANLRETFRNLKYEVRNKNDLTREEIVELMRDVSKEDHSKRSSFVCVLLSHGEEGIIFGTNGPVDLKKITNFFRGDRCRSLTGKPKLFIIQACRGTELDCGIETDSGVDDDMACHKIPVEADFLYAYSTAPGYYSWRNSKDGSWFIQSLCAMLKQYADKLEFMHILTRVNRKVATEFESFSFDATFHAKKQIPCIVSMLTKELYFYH

[10] = target: T3, Sentrin-specific protease 8; test: inhibition of sentrin protease 8 – biochemical, luminescence, set 2, SAR follow-up (AID 588601); format: functional
[11] = target: T4, Sentrin-specific protease 6; test: inhibition of human SENP6 catalytic domain – biochemical, luminescence, set 2, SAR follow-up (AID 588598); format: functional
[12] = target: T5, Caspase-3; test: inhibition of recombinant caspase-3 activity – biochemical, luminescence, set 2, selectivity assay for SENP protease inhibitor project, SAR follow-up (AID 588599); format: functional

IC50 [5]	IC50 [7]	IC50 [8]	IC50 [9]	IC50 [11]	IC50 [12]	SMILES	IC50 [1]	EC50 [2]	EC50 [3]	EC50 [4]	IC50 [6]	IC50 [10]
						CC(C)CN1CCC(=O)N([C@H](CO)c2ccccc2)CC1	> 89.3 µM (inactive)	> 54.7 µM (inactive)	> 54.7 µM (inactive)	> 54.7 µM (inactive)		
1 µM (active)	1.36 µM (active)	1.2 µM (active)	1.2 µM (active)	1.35 µM (active)	1.44 µM (active)	Oc1ccccc1-c1nc(/C=C/c2ccccc2Cl)no1					1.2 µM (active)	1.29 µM (active)
